# pKi: −log10 of the molar value.
# Experiments:
# Adenosine deaminase = biological target: T1, Adenosine deaminase (Bos taurus, UniProt P56658); assay: Inhibition of Calf intestinal adenosine deaminase (ADA).
# T1 sequence (P56658 whole entry): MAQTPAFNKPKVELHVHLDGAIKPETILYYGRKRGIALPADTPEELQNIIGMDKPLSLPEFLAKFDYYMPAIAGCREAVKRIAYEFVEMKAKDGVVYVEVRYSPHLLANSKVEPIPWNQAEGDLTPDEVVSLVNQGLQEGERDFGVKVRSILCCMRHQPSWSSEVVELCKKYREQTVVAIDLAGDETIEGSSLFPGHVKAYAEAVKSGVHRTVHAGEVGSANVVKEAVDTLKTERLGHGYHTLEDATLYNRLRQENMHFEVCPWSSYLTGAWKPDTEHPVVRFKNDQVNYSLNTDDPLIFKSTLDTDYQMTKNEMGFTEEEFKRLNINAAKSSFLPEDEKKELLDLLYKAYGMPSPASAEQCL
# AMP deaminase 3 = biological target: T2, AMP deaminase 3 (Homo sapiens, UniProt Q01432); assay: Inhibition of recombinant human E-type adenylate deaminase
# T2 sequence (Q01432 whole entry): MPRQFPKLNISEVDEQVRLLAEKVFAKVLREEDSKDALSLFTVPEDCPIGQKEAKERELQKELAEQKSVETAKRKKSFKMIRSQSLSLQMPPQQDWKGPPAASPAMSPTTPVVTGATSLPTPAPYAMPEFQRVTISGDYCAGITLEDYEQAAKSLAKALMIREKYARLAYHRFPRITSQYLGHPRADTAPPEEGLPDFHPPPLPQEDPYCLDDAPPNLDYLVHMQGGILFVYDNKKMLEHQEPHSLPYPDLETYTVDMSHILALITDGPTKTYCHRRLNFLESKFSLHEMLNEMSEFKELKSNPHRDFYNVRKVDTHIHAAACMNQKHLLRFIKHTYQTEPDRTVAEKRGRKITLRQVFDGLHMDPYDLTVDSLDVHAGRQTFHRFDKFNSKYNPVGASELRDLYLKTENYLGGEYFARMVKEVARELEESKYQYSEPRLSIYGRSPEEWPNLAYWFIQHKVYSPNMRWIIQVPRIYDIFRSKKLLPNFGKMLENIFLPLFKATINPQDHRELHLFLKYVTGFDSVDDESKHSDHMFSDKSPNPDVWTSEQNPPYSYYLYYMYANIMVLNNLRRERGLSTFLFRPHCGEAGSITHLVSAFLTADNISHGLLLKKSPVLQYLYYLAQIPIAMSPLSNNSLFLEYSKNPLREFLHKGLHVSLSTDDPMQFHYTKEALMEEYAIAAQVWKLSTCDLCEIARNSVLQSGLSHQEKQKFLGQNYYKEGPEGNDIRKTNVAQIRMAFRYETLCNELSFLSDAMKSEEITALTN
SMILES,pKi (Adenosine deaminase),pKi (AMP deaminase 3)
CC(C)Oc1c(C(=O)O)cc(CCn2cnc3c2N=CNCC3O)c2c1CCCC2 (configuration not stated),< 5.12,7.05
OC[C@H]1O[C@@H](n2cnc3c2N=CNC[C@H]3O)[C@H](O)[C@@H]1O [COFORMYCIN],–,5.52
O=C(OCc1ccccc1)c1c(Cl)c2c(c(CCn3cnc4c3NC=NCC4O)c1Cl)CCCC2 (configuration not stated),< 5.12,6.52
O=C(O)c1cccc(CCn2cnc3c2N=CNCC3O)c1 (configuration not stated),–,6.30
COC(=O)c1cc(CCn2cnc3c2NC=NCC3O)c2ccccc2c1 (configuration not stated),< 5.12,5.74
O=C(O)c1cc(CCn2cnc3c2N=CNCC3O)c2c(c1OCc1ccccc1)CCCC2 (configuration not stated),< 5.12,8.05
CCOC(=O)c1cc2c(c(CCn3cnc4c3N=CNCC4O)c1OC)CCCC2 (configuration not stated),< 5.12,5.62
CCOC(=O)c1c(Cl)c2c(c(CCn3cnc4c3NC=NCC4O)c1Cl)CCCC2 (configuration not stated),< 5.12,6.30
O=C(O)c1c(Cl)c2c(c(CCn3cnc4c3N=CNCC4O)c1Cl)CCCC2 (configuration not stated),< 5.12,7.30
CCOC(=O)c1cc(CCn2cnc3c2N=CNCC3O)c2cccc(C(F)(F)F)c2c1 (configuration not stated),5.57,4.46
COc1c(C(=O)O)cc2c(c1CCn1cnc3c1NC=NCC3O)CCCC2 (configuration not stated),< 5.12,7.40
O=C(O)C(CCCCn1cnc2c1NC=NCC2O)Cc1ccccc1 (configuration not stated),–,6.39
O=C(O)c1cc(CCn2cnc3c2N=CNCC3O)c2cc(Br)ccc2c1 (configuration not stated),< 5.12,6.02
CCOC(=O)c1cc(CCn2cnc3c2NC=NCC3O)c2c(c1OCc1ccccc1)CCCC2 (configuration not stated),< 5.12,6.52

# More lines, in order of rising pKi (AMP deaminase 3), values ahead:
pKi (Adenosine deaminase),pKi (AMP deaminase 3),SMILES
5.36,4.85,CCOC(=O)c1cc(CCn2cnc3c2N=CNCC3O)c2cc(Br)ccc2c1 (configuration not stated)
6.14,5.30,O=C(OCc1ccccc1)c1cc2c(c(CCn3cnc4c3N=CNCC4O)c1)CCCC2 (configuration not stated)
< 5.12,5.42,CCOC(=O)c1cc(CCn2cnc3c2NC=NCC3O)c2c(c1OC(C)C)CCCC2 (configuration not stated)
5.43,5.64,CCOC(=O)c1cc(CCn2cnc3c2NC=NCC3O)c2c(c1OC)CCCC2 (configuration not stated)
5.47,5.89,CCOC(=O)c1cc2c(c(CCn3cnc4c3N=CNCC4O)c1)CCCC2 (configuration not stated)
6.28,6.00,CCOC(=O)c1cc(CCn2cnc3c2NC=NCC3O)c2c(c1Br)CCCC2 (configuration not stated)
< 5.12,6.66,O=C(O)c1cc(CCn2cnc3c2N=CNCC3O)c2cccc(C(F)(F)F)c2c1 (configuration not stated)
< 5.12,7.52,COc1c(C(=O)O)cc(CCn2cnc3c2NC=NCC3O)c2c1CCCC2 (configuration not stated)
< 3.00,7.70,O=C(O)c1cc(CCn2cnc3c2NC=NCC3O)c2ccccc2c1 (configuration not stated)
< 5.12,7.82,O=C(O)c1cc2c(c(CCn3cnc4c3NC=NCC4O)c1)CCCC2 (configuration not stated)
< 5.12,8.70,O=C(O)c1cc(CCn2cnc3c2N=CNCC3O)c2c(c1Br)CCCC2 (configuration not stated)

# From ChEMBL document CHEMBL1134349, “AMP deaminase inhibitors. 5. Design, synthesis, and SAR of a highly potent inhibitor series” (J Med Chem, 2001)
